From paper PMC5784920, “Inhibition of α-glucosidase, α-amylase, and aldose reductase by potato polyphenolic compounds” (PLoS ONE, 2018) come the findings set out here.

One data set relates to T1, α-glucosidase.
T1 construct: gene MAL12; introduction speaks of intestinal enzyme
The data set can be described thus: p-nitrophenol release at […] nm, Lineweaver-Burk. Type of data set: biochemical. The conditions noted are these: pH 6.5 phosphate; no inhibitor.

In another data set the test system is O=C[C@H](O)CO. As to the kind of experiment: purified protein. The conditions noted are these: NADPH cofactor; no inhibitor; varied substrate taken as glyceraldehyde (D/L not told).

On to `O=[N+]([O-])c1ccc(O[C@H]2O[C@H](CO)[C@@H](O)[C@H](O)[C@H]2O)cc1` [PNPG], for which, in the data set with α-glucosidase, the Km was 4.44 mM.

On to aldose reductase (AR) (Homo sapiens), for which the Km in the data set on O=C[C@H](O)CO was found to be 3.03 mM.
